# From US10100058B2, “Fused heterocyclic compounds as CaM kinase inhibitors” (Gilead Sciences, Inc., priority 2016, dated 2018)
# Target: recombinant CaMKIIδ (Homo sapiens (Human), UniProt Q13557)
# Experiment: CaMKIIδ biochemical assay (HTRF)
# Conditions: 10 pM CaMKIIδ, 110 nM calmodulin, 12 μM ATP, 1 hour; read-out: CAMKIID-HTRF-384V2 (IC50 - nM)
# Description: CaMKIIδ Biochemical Assay
# The biochemical activity of recombinant CaMKIIδ was measured by monitoring the phosphorylation of a target peptide using Homogenous Time Resolved Fluorescence (HTRF) technology from CisBio Bioassays.
row,SMILES,IC50 [nM]
1,"C[C@@H](CNC(=O)c1ccnc(-c2cnn3ccc(-c4cccs4)nc23)c1)NCC(F)F [Example 27, (S)—N-(2-((2,2-difluoroethyl)amino)propyl)-2-(5-(thiophen-2-yl)pyrazolo[1,5-a]pyrimidin-3-yl)isonicotinamide]",18.4
2,"CCN(CC)[C@@H](C)CNC(=O)c1cc(-c2cnn3ccc(-c4cccs4)nc23)nc(N2CC[C@H]2C(=O)N2CC(C)(C)C2)c1 [Example 292, N—((S)-2-(diethylamino)propyl)-2-((S)-2-(3,3-dimethylazetidine-1-carbonyl)azetidin-1-yl)-6-(5-(thiophen-2-yl)pyrazolo[1,5-a]pyrimidin-3-yl)isonicotinamide]",0.58
3,"COC1CN(c2cc(C(=O)N3CC[C@H](N)C3)cc(-c3cnn4ccc(-c5ccccc5)nc34)n2)C1 [Example 328, (S)-(3-aminopyrrolidin-1-yl)(2-(3-methoxyazetidin-1-yl)-6-(5-phenylpyrazolo[1,5-a]pyrimidin-3-yl)pyridin-4-yl)methanone]",91.9
4,"CCN[C@@H](C)CNC(=O)c1cc(CC)nc(-c2cnn3ccc(-c4ccccc4)nc23)c1 [Example 119, (S)-2-ethyl-N-(2-(ethylamino)propyl)-6-(5-phenylpyrazolo[1,5-a]pyrimidin-3-yl)isonicotinamide]",71
5,"COC1CN(c2cc(C(=O)NC[C@H](C)N)cc(-c3cnn4ccc(-c5ccccc5)nc34)n2)C1 [Example 172, (S)—N-(2-aminopropyl)-2-(3-methoxyazetidin-1-yl)-6-(5-phenylpyrazolo[1,5-a]pyrimidin-3-yl)isonicotinamide]",85.3
6,"CCNc1cc(C(=O)NC[C@H](C)N(CC)CC)cc(-c2cnn3ccc(-c4cccs4)nc23)n1 [Example 261, (S)—N-(2-(diethylamino)propyl)-2-(ethylamino)-6-(5-(thiophen-2-yl)pyrazolo[1,5-a]pyrimidin-3-yl)isonicotinamide]",0.54
7,"CCN(CC)CCNC(=O)c1cc(NCCO)nc(-c2cnn3ccc(-c4cccs4)nc23)c1 [Example 259, N-(2-(diethylamino)ethyl)-2-((2-hydroxyethyl)amino)-6-(5-(thiophen-2-yl)pyrazolo[1,5-a]pyrimidin-3-yl)isonicotinamide]",1.02
8,"CCN(CC)[C@@H](C)CNC(=O)c1cc(-c2cnn3ccc(-c4cccs4)nc23)nc(N2CC[C@H]2C(=O)N(C)OC)c1 [Example 287, N—((S)-2-(diethylamino)propyl)-2-((S)-2-(methoxy(methyl)carbamoyl)azetidin-1-yl)-6-(5-(thiophen-2-yl)pyrazolo[1,5-a]pyrimidin-3-yl)isonicotinamide]",0.33

# These reach a lower IC50. Values come first.
row,IC50 [nM],SMILES
1,0.14,"CCN(CC)[C@@H](C)CNC(=O)c1cc(NCCN2CCOCC2)nc(-c2cnn3ccc(-c4cccs4)nc23)c1 [Example 223, (S)—N-(2-(diethylamino)propyl)-2-((2-morpholinoethyl)amino)-6-(5-(thiophen-2-yl)pyrazolo[1,5-a]pyrimidin-3-yl)isonicotinamide]"
2,0.21,"CCN(CC)[C@@H](C)CNC(=O)c1cc(-c2cnn3ccc(-c4cccs4)nc23)nc(N2CC(O)(C(F)(F)F)C2)c1 [Example 219, (S)—N-(2-(diethylamino)propyl)-2-(3-hydroxy-3-(trifluoromethyl)azetidin-1-yl)-6-(5-(thiophen-2 yl)pyrazolo[1,5-a]pyrimidin-3-yl)isonicotinamide]"
3,0.24,"CCN(CC)[C@@H](C)CNC(=O)c1cc(-c2c(C)n[nH]c2C)nc(-c2cnn3ccc(-c4cccs4)nc23)c1 [Example 332, (S)—N-(2-(diethylamino)propyl)-2-(3,5-dimethyl-1H-pyrazol-4-yl)-6-(5-(thiophen-2-yl)pyrazolo[1,5-a]pyrimidin-3-yl)isonicotinamide]"
4,0.2,"CCN(CC)[C@@H](C)CNC(=O)c1cc(-c2cnn3ccc(-c4cccs4)nc23)nc(N2CC(S(=O)(=O)NC)C2)c1 [Example 150, (S)—N-(2-(diethylamino)propyl)-2-(3-(N-methylsulfamoyl)azetidin-1-yl)-6-(5-(thiophen-2-yl)pyrazolo[1,5-a]pyrimidin-3-yl)isonicotinamide]"
